Consider 22 compounds from patent publication US9730940B2, “Purine inhibitors of human phosphatidylinositol 3-kinase delta” (priority 2012, dated 2017).

The test deals with PI3K-alpha (Homo sapiens (Human), UniProt P42336). As to the kind of experiment: HTRF PI3K biochemical assay, alpha isoform. As to conditions: ratio PI3K-alpha IC50 value/PI3K-delta IC50 value. A general note: Time-resolved FRET reads energy transfer from a long-lived donor to a nearby acceptor.
Chain of PI3K-alpha (P42336 whole entry, looked up, canonical isoform): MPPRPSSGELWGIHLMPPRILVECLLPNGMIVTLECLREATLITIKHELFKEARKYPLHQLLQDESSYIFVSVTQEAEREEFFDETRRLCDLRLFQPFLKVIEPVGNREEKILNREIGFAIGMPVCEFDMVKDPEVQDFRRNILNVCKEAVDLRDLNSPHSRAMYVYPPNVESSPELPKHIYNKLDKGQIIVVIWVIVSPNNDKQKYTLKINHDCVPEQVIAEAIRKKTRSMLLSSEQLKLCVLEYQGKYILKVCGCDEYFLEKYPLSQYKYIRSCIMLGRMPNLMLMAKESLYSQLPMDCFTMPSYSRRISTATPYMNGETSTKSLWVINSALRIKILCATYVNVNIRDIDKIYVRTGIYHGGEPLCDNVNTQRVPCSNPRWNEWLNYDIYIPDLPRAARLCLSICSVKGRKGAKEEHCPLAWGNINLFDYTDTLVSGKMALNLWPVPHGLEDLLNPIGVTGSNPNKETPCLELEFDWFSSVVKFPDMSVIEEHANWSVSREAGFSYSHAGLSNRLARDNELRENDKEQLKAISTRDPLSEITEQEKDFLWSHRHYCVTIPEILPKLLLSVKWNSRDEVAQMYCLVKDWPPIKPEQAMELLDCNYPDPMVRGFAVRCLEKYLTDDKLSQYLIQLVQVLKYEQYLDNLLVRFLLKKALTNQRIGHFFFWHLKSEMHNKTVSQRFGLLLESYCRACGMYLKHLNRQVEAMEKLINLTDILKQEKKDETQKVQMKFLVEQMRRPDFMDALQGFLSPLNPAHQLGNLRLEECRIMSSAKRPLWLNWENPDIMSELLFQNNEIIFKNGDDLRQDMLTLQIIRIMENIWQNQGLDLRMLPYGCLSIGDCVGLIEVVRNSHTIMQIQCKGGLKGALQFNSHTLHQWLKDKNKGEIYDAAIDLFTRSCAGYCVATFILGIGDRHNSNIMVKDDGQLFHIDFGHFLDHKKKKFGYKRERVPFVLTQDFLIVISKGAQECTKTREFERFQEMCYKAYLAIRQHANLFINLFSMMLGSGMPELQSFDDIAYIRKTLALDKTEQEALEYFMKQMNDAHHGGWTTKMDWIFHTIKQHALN
Chain of PI3K-alpha (P27986 whole entry partner, looked up, canonical isoform): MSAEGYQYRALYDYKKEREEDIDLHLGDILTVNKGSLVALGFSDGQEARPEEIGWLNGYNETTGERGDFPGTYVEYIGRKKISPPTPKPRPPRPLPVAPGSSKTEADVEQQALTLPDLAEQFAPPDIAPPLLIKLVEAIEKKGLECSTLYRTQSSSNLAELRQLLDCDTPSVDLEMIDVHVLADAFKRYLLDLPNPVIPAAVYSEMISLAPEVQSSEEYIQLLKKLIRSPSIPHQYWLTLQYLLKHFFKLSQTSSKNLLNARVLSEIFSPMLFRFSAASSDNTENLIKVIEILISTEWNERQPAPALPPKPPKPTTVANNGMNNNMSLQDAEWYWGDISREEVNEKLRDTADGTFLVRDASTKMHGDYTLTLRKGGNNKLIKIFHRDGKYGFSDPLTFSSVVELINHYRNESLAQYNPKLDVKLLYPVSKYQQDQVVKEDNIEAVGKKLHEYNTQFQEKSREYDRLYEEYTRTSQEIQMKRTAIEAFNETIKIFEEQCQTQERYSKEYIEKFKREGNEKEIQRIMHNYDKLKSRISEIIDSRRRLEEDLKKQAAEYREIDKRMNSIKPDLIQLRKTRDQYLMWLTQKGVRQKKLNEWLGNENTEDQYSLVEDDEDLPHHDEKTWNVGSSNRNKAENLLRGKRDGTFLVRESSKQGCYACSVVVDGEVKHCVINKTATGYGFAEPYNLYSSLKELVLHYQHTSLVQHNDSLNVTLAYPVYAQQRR
As to `CCC(=O)N1CC[C@H](Oc2ncnc3c2nc(-c2ccc(OC)c(C(F)(F)F)c2)n3C)C1` [Compound 3-35, 8-[4-methoxy-3-(trifluoromethyl)phenyl]-9-methyl-6-{[(3S)-1-propanoylpyrrolidin-3-yl]oxy}-9H-purine], the “Relative Selectivity versus PI3Kalpha” value was over 10.
To `CCn1c(-c2cnc(C)nc2)nc2c(O[C@H]3CCN(C(=O)C4CC4F)C3)ncnc21` (single isomer, unassigned) [Compound 2-134, 9-ethyl-6-(((3S)-1-[((1R,2R)- or (1S,2S)-2-fluorocyclopropyl)carbonyl]pyrrolidin-3-yl}oxy)-8-(2-methylpyrimidin-5-yl)-9H-purine] belongs over 10; to `COc1ncc(-c2nc3c(O[C@H]4CCN(C(=O)OC(C)(C)C)C4)ncnc3n2C)cc1C` [Compound 1-13, tert-butyl (3S)-3-{[8-(6-methoxy-5-methylpyridin-3-yl)-9-methyl-9H-purin-6-yl]oxy}pyrrolidine-1-carboxylate], over 10; to `CCn1c(-c2cnc(OC)c(C#N)c2)nc2c(O[C@H]3CCN(C(=O)C4CC4)C3)ncnc21` [Compound 3-42, 5-(6-{[(3S)-1-(cyclopropylcarbonyl)pyrrolidin-3-yl]oxy}-9-ethyl-9H-purin-8-yl)-2-methoxypyridine-3-carbonitrile], over 10.
To `CCC(=O)N1CCC(Cc2ncnc3c2nc(-c2cnn(CC)c2C)n3C)C1` (stereo not shown) [Compound 11-3, 1-(3-((8-(1-ethyl-5-methyl-1H-pyrazol-4-yl)-9-methyl-9H-purin-6-yl)methyl)pyrrolidin-1-yl)propan-1-one] belongs over 10; to `CCn1c(-c2cnc(OC)nc2)nc2c(O[C@H]3CCN(C(=O)C4CC4)C3)ncnc21` [Compound 3-27, 6-{[(3S)-1-(cyclopropylcarbonyl)pyrrolidin-3-yl]oxy}-9-ethyl-8-(2-methoxypyrimidin-5-yl)-9H-purine], over 10.
For the compound `CCNC(=O)c1nc2c(O[C@H]3CCN(C(=O)OC(C)(C)C)C3)ncnc2n1CC` [Compound 15-5, tert-butyl (3S)-3-{[9-ethyl-8-(ethylcarbamoyl)-9H-purin-6-yl]oxy}pyrrolidine-1-carboxylate], the “Relative Selectivity versus PI3Kalpha” value is recorded as over 10.
To `CCn1ncc(-c2nc3c(O[C@H]4CCN(C(=O)c5oncc5C)C4)ncnc3n2C)c1C` [Compound 2-69, 8-(1-ethyl-5-methyl-1H-pyrazol-4-yl)-9-methyl-6-({(3S)-1-[(4-methylisoxazol-5-yl)carbonyl]pyrrolidin-3-yl}oxy)-9H-purine] belongs over 10; to `Cc1ncc(-c2nc3c(OC4CCN(C(=O)OC(C)(C)C)C4)ncnc3n2C)cn1` [Compound 1-14, terl-butyl (3S)-3-{[9-methyl-8-(2-methylpyrimidin-5-yl)-9H-purin-6-yl]oxy}pyrrolidine-1-carboxylate], over 10.
To `CCn1c(-c2cnc(C)nc2)nc2c(OC3CN(C(=O)C4CC4)CC3C(F)F)ncnc21` (single isomer, unassigned) [Compound 3-67, cyclopropyl([(3R,4S) or (3S,4R)]-3-(difluoromethyl)-4-((9-ethyl-8-(2-methylpyrimidin-5-yl)-9H-purin-6-yl)oxy)pyrrolidin-1-yl)methanone] belongs over 10; to `CCn1ncc(-c2nc3c(OC4CCN(C(=O)CC5CCOCC5)C4)ncnc3n2C)c1C` (stereo not shown) [Compound 2-6, 8-(1-ethyl-5-methyl-1H-pyrazol-4-yl)-9-methyl-6-{[1-(tetrahydro-2H-pyran-4-ylacetyl)pyrrolidin-3-yl]oxy}-9H-purine], over 10; to `CCn1ncc(-c2nc3c(O[C@H]4CCN(C(=O)c5cnn(C)c5)C4)ncnc3n2C)c1C` [Compound 2-80, 8-(1-ethyl-5-methyl-1H-pyrazol-4-yl)-9-methyl-6-({(3S)-1-[(1-methyl-1H-pyrazol-4-yl)carbonyl]pyrrolidin-3-yl}oxy)-9H-purine], 6.
On to `CCn1ncc(-c2nc3c(O[C@H]4CCN(C(=O)c5c[nH]nn5)C4)ncnc3n2C)c1C` [Compound 2-40, 8-(1-ethyl-5-methyl-1H-pyrazol-4-yl)-9-methyl-6-{[(3S)-1-(1H-1,2,3-triazol-4-ylcarbonyl)pyrrolidin-3-yl]oxy}-9H-purine], for which the “Relative Selectivity versus PI3Kalpha” value turned out to be 2.
As for `CCC(=O)N1CC[C@H](Oc2ncnc3c2nc(-c2ccc(OC)nc2)n3C)C1` [Compound 3-33, 8-(6-methoxypyridin-3-yl)-9-methyl-6-{[(3S)-1-propanoylpyrrolidin-3-yl]oxy}-9H-purine], the figure is over 10.
As for `CCn1ncc(-c2nc3c(OC4CC(C)N(C(=O)OC(C)(C)C)C4)ncnc3n2C)c1C` (stereo not shown) [Compound 1-30, tert-butyl 4-((8-(1-ethyl-5-methyl-1H-pyrazol-4-yl)-9-methyl-9H-purin-6-yl)oxy)-2-methylpyrrolidine-1-carboxylate], the figure is 3; as for `CCn1c(-c2cnc(C)nc2)nc2c(O[C@H]3CCN(c4ccc(F)cc4)C3)ncnc21` [Compound 7-20, 9-ethyl-6-{[(3S)-1-(4-fluorophenyl)pyrrolidin-3-yl]oxy}-8-(2-methylpyrimidin-5-yl)-9H-purine], over 10.
Consider `CCn1ncc(-c2nc3c(O[C@H]4CCN(C(=O)C5CCC5)C4)ncnc3n2C)c1C` [Compound 2-105, 6-{[(3S)-1-(cyclobutylcarbonyl)pyrrolidin-3-yl]oxy}-8-(1-ethyl-5-methyl-1H-pyrazol-4-yl)-9-methyl-9H-purine], for which the “Relative Selectivity versus PI3Kalpha” value is listed as over 10.
As for `CCn1ncc(-c2nc3c(O[C@H]4CCN(C(=O)c5ccn[nH]5)C4)ncnc3n2C)c1C` [Compound 2-33, 8-(1-ethyl-5-methyl-1H-pyrazol-4-yl)-9-methyl-6-{[(3S)-1-(1H-pyrazol-5-ylcarbonyl)pyrrolidin-3-yl]oxy}-9H-purine], the figure is over 10.
To `CCn1ncc(-c2nc3c(S[C@H]4CCN(C(=O)C5CC5)C4)ncnc3n2C)c1C` [Compound 10-7, (S)-cyclopropyl(3-((8-(1-ethyl-5-methyl-1H-pyrazol-4-yl)-9-methyl-9H-purin-6-yl)thio)pyrrolidin-1-yl)methanone] belongs over 10; to `CCn1ncc(-c2nc3c(CC4CCN(C(=O)C5CCOCC5)C4)ncnc3n2C)c1C` (stereo not shown) [Compound 11-2, (3-((8-(1-ethyl-5-methyl-1H-pyrazol-4-yl)-9-methyl-9H-purin-6-yl)methyl)pyrrolidin-1-yl)(tetrahydro-2H-pyran-4-yl)methanone], over 10; to `CCn1c(-c2cnc(C)nc2)nc2c(O[C@H]3CCN(C(=O)N4CCC4)C3)ncnc21` [Compound 5-11, 6-{[(3S)-1-(azetidin-1-ylcarbonyl)pyrrolidin-3-yl]oxy}-9-ethyl-8-(2-methylpyrimidin-5-yl)-9H-purine], over 10.
Consider `CN(C)c1ccc(-c2nc3c(O[C@H]4CCN(C(=O)OC(C)(C)C)C4)ncnc3n2C)cn1` [Compound 1-20, tert-butyl (3S)-3-{[8-(6-(dimethylamino)pyridin-3-yl]-9-methyl-9H-purin-6-yl}oxy)pyrrolidine-1-carboxylate], for which the “Relative Selectivity versus PI3Kalpha” value is over 10.
